Measured values published in patent US4257941A, “Polycyclic nitrogen-containing compounds” (BASF Aktiengesellschaft, priority 1976, dated 1981).
Where two headings read alike, the source gives them in different places.

Columns and labels:
Lolium multifl. = assay: Growth height of Gramineae (Example 11, Table B); type: in vivo; conditions: 3.0 kg/ha, 0 = no inhibition, 100 = no growth; for inhibition at 3000 g/ha: Lolium, read-out: growth inhibition compared with untreated control
Source text: (§1) The vessels used for the experiments were plastic pots having a volume of 1,130 cm^3 (Table A) or paraffined paper cups having a volume of 170 cm^3 (Table B). The pots and cups were filled with a sandy loam. The seeds of the test plants-separated by species-were sown shallow. Preemergence treatment (soil treatment) was effected immediately after sowing and before germination of the seeds. Seeds lying on the surface came into contact with the active ingredients. Postemergence treatment (leaf treatment) took place at an average growth height of the plants (depending on the rate of growth) of from 6 to 10 cm. The substances were suspended, emulsified or dissolved in water as diluent and applied by means of fine nozzles. The vessels were kept in the greenhouse in a temperature range of 12° C. to 25° C., and were regularly sprinkler irrigated for the duration of the experiment. The observation period was 6 to 8 weeks.

Avena sativa = assay: Growth height of Gramineae (Example 11, Table B); type: in vivo; conditions: 3.0 kg/ha, 0 = no inhibition, 100 = no growth; for inhibition at 3000 g/ha: Avena sativa, read-out: growth inhibition compared with untreated control
Source text: as §1

Hordeum vulgare = assay: Growth height of Gramineae (Example 11, Table B); type: in vivo; conditions: 3.0 kg/ha, 0 = no inhibition, 100 = no growth; for inhibition at 3000 g/ha: Hordeum vulgare, read-out: growth inhibition compared with untreated control
Source text: as §1

sugar beet = assay: Sugar content of sugar beet in the open (Example 21); type: in vivo, Beta vulgaris sap. altissima (Kleinwanzleben KAWPoly); conditions: 2.0 kg/ha; for Sugar content in freshly lifted beet, absolute: control 12.6 a; for Sugar content in freshly lifted beet, relative increase: control 100
Source text: The crop plant was Beta vulgaris sap. altissima, variety "Kleinwanzleben KAWPoly". The soil was a sandy loam (1.5% organic substance, pH 5.7). Mineral fertilization totalled 400 kg N, 100 kg P2 O5, and 100 kg K2 O per hectare. For chemical weed control, 2.5 kg/ha of 1-phenyl-4-amino-5-chloropyridazone-(6) was applied before emergence of the beet plants. Aphids were controlled with dimethoate (O,O-dimethyl-S-(N-methylcarbonylmethyl)-phosphorus dithioate). Sowing took place on Mar. 10, 1975. The beets were lifted comparatively early on Sept. 29, 1975. The active ingredient was applied with the aid of spraying equipment with fine nozzles, mounted on a tractor. The amount of water used for dispersion purposes was 780 liters/ha. Treatment was effected on 2 different dates and on different plots:
I--the beet had 5 to 7 true leaves;
II--five weeks before harvesting, on the well developed plants. The sugar content was determined from fresh beets immediately after lifting.

Cynodon dactylon = assay: Herbicidal action (Example 25); type: in vivo; conditions: preemergence
Procedure: (§2) Paraffined paper cups having a volume of 170 cm^3 were filled with a sandy loam, and the seeds of the test plants sown therein, separated by species. (The species are also listed below.)
(§3) In the first group, treatment was effected immediately after sowing and before germination of the seeds (preemergence treatment=soil treatment). Shallow sown seeds not completely covered with soil came into contact with the active ingredients. In the second group, the plants were treated postemergence (=leaf treatment) at a growth height of from 2 to 8 cm, depending on the rate of growth and shape of the species concerned. The compounds were suspended or emulsified in water and applied with the aid of fine nozzles. The soil and plants were thoroughly sprinkler irrigated for the duration of the experiment. The cups were placed in the greenhouse and kept in the temperature range 12°-25° C. or 18°-35° C., depending on the temperature requirements of the various species. After 2 to 6 weeks the action was assessed visually on a 0 to 100 scale, 0 denoting no damage and 100 denoting plants not germinated or completely destroyed.

Cyperus esculentus = assay: Herbicidal action (Example 25); type: in vivo; conditions: preemergence
Procedure: as §2, §3

Digitaria sanguinalis = assay: Herbicidal action (Example 25); type: in vivo; conditions: preemergence
Procedure: as §2, §3

Ipomoea spp. = assay: Herbicidal action (Example 25); type: in vivo; conditions: preemergence
Procedure: as §2, §3

Alopecurus myosuroides = assay: Herbicidal action (Example 25); type: in vivo; conditions: Alopecurus myosuroides, pre-emergence, read-out: percentage damage
Procedure: as §2, §3

Euphorbia spp. = assay: Herbicidal action (Example 25); type: in vivo; conditions: preemergence
Procedure: as §2, §3

Question: Which “growth inhibition compared with untreated control” value (Lolium multifl.; leaf treatment) does the source give for Clc1ccc(N2N=NC3C4CC(C5N=NC45)C32)cc1Cl (stereo not shown) here?
Answer: 25%

Question: And the “growth inhibition compared with untreated control” value (Lolium multifl.; soil treatment)?
Answer: 30%

Question: What about the “growth inhibition compared with untreated control” value (Avena sativa; leaf treatment) of the same compound?
Answer: 40%

Question: What about the “growth inhibition compared with untreated control” value (Avena sativa; soil treatment) of the same compound?
Answer: 30%

Question: And the “growth inhibition compared with untreated control” value (Hordeum vulgare; leaf treatment)?
Answer: 30%

Question: And the “growth inhibition compared with untreated control” value (Hordeum vulgare; soil treatment)?
Answer: 40%

Question: With c1ccc(-n2nccc2N2N=NC3C4CC(C5N=NC45)C32)cc1 (stereo not shown) as the compound, how does the “growth inhibition compared with untreated control” value (Lolium multifl.; leaf treatment) read?
Answer: 0%

Question: And the “growth inhibition compared with untreated control” value (Avena sativa; leaf treatment)?
Answer: 20%

Question: What about the “growth inhibition compared with untreated control” value (Avena sativa; soil treatment) of the same compound?
Answer: 60%

Question: And the “growth inhibition compared with untreated control” value (Hordeum vulgare; leaf treatment)?
Answer: 20%

Question: And the “growth inhibition compared with untreated control” value (Hordeum vulgare; soil treatment)?
Answer: 35%

Question: For Brc1ccc(N2N=NC3C4CC(C5NNC45)C32)cc1 (stereo not shown), which inhibition at 3000 g/ha (Lolium multifl.; leaf treatment) is on record?
Answer: 50%

Question: And the inhibition at 3000 g/ha (Lolium multifl.; soil treatment)?
Answer: 50%

Question: What about the inhibition at 3000 g/ha (Avena sativa; leaf treatment) of the same compound?
Answer: 60%

Question: And the inhibition at 3000 g/ha (Avena sativa; soil treatment)?
Answer: 60%

Question: And the inhibition at 3000 g/ha (Hordeum vulgare; leaf treatment)?
Answer: 50%

Question: What about the inhibition at 3000 g/ha (Hordeum vulgare; soil treatment) of the same compound?
Answer: 60%

Question: What does the source list for Brc1ccc(N2C3C4CC(C5N=NC45)C32)cc1 (stereo not shown)?
Answer: inhibition at 3000 g/ha (Lolium multifl.; leaf treatment): 50%; inhibition at 3000 g/ha (Lolium multifl.; soil treatment): 50%; inhibition at 3000 g/ha (Avena sativa; leaf treatment): 50%; inhibition at 3000 g/ha (Avena sativa; soil treatment): 40%; inhibition at 3000 g/ha (Hordeum vulgare; leaf treatment): 50%; inhibition at 3000 g/ha (Hordeum vulgare; soil treatment): 60%

Question: What does the source list for C[N+](C)(C)CCCl [drawing 370]?
Answer: inhibition at 3000 g/ha (Lolium multifl.; leaf treatment): 20%; inhibition at 3000 g/ha (Lolium multifl.; soil treatment): 5%; inhibition at 3000 g/ha (Avena sativa; leaf treatment): 45%; inhibition at 3000 g/ha (Avena sativa; soil treatment): 25%; inhibition at 3000 g/ha (Hordeum vulgare; leaf treatment): 10%; inhibition at 3000 g/ha (Hordeum vulgare; soil treatment): 10%

Question: Which results are given for Brc1ccc(N2N=NC3C4CC(C5N=NC45)C32)cc1 (stereo not shown) [drawing 401]?
Answer: Sugar content in freshly lifted beet, absolute (sugar beet; date I (20.05.75), letter = Duncan group): 14.35%; Sugar content in freshly lifted beet, relative increase (sugar beet; date I): 113; Sugar content in freshly lifted beet, absolute (sugar beet; date II (21.08.75), letters = Duncan group): 13.85%; Sugar content in freshly lifted beet, relative increase (sugar beet; date II): 110

Question: What does the source list for c1ccc(N2N=NC3C4CC(C5N=NC45)C32)cc1 (stereo not shown) [drawing 410]?
Answer: percentage damage (Cynodon dactylon; 2.0 kg/ha): 70 percentage damage; percentage damage (Cynodon dactylon; 4.0 kg/ha): 90 percentage damage; percentage damage (Cyperus esculentus; 2.0 kg/ha): 27 percentage damage; percentage damage (Cyperus esculentus; 4.0 kg/ha): 55 percentage damage; percentage damage (Digitaria sanguinalis; 2.0 kg/ha): 100 percentage damage; percentage damage (Ipomoea spp.; 2.0 kg/ha): 50 percentage damage; percentage damage (Ipomoea spp.; 4.0 kg/ha): 60 percentage damage; pest or weed control at 4000 g/ha (Alopecurus myosuroides; preemergence, 4.0 kg/ha): 85%

Question: What does the source list for c1ccc(N2C3C4CC(C5N=NC45)C32)cc1 (stereo not shown) [drawing 411]?
Answer: percentage damage (Euphorbia spp.; 2.0 kg/ha): 90 percentage damage; percentage damage (Euphorbia spp.; 4.0 kg/ha): 100 percentage damage; percentage damage (Cynodon dactylon; 2.0 kg/ha): 65 percentage damage; percentage damage (Cynodon dactylon; 4.0 kg/ha): 90 percentage damage; percentage damage (Cyperus esculentus; 2.0 kg/ha): 45 percentage damage; percentage damage (Cyperus esculentus; 4.0 kg/ha): 60 percentage damage; percentage damage (Digitaria sanguinalis; 2.0 kg/ha): 70 percentage damage; percentage damage (Digitaria sanguinalis; 4.0 kg/ha): 100 percentage damage; percentage damage (Ipomoea spp.; 4.0 kg/ha): 29 percentage damage; pest or weed control at 2000 g/ha (Alopecurus myosuroides): 70%; pest or weed control at 4000 g/ha (Alopecurus myosuroides): 83%
